Assay results reported in patent US8598210B2, “Prolyl hydroxylase inhibitors and methods of use” (Akebia Therapeutics Inc., priority 2006, dated 2013).

Tests used:
[1] = biological target: Recombinant human EGLN-1-179/426 (Homo sapiens (Human), UniProt Q9GZT9); experiment: EGLN-1 Activity Assay (MALDI-TOF MS); format: biochemical; conditions: read-out: EGLIN1 IC50
Description: (§1) Hydroxylated peptide product is identified from substrate by the gain of 16 Da. Data defined as percent conversion of substrate to product is analyzed in GraphPad Prism 4 to calculate IC50 values.

[2] = tested on: EPO; experiment: Mouse Serum EPO Assay (mouse ischemic hindlimb study); format: in vivo; conditions: for EPO response: in vivo response
Description: (§2) Mouse Ischemic Hindlimb Study
(§3) All animal work is conducted in accordance with the Guide for the Care and Use of Laboratory Animals (National Academy of Sciences; Copyright© 1996) and the Institutional Animal Care and Use Committee guidelines at Procter and Gamble Pharmaceuticals. We studied 9-10 week old male C57B1/6 mice from Charles River Laboratory (Portage, Mich.). The mice are orally dosed with vehicle (aqueous carbonate buffer, 50 mM; pH 9.0) or compound 1 in vehicle at 50 mg/kg or 100 mg/kg. The animals are dosed three times: day 1 at 8 am and 5 pm, day 2 at 8 am. One hour after the first dose, unilateral arterial ligation is performed under anesthesia using isoflurane. The femoral artery is ligated proximal to the origin of the popliteal artery. The contralateral limb underwent a sham surgical procedure. Ligation is performed in an alternating fashion between right and left hindlimbs. Two hours after 8 am dosing on day 2, we obtained blood by ventricular stick while the mice are anesthetized with isoflurane. Serum samples for EPO analysis are obtained using gel clot serum separation tubes. Heart, liver, and gastrocnemius muscles are harvested, snap-frozen in liquid nitrogen, and stored in −80° C. until use.
The mouse serum EPO is detected using Mouse Quantikine Erythropoietin ELISA kit from R&D Systems according to manufacturer's instructions.

[3] = biological target: Full-length recombinant human EGLN-3 (His-MBP-TVMV-EGLN-3 fusion) (Homo sapiens (Human), UniProt Q9H6Z9); experiment: EGLN-3 enzyme activity assay (MALDI-TOF MS); format: biochemical; conditions: read-out: EGLIN3 IC50
Description: as §1

[4] = tested on: HIF-1α; experiment: Mouse Tissue HIF Western Blot Analysis; format: in vivo; conditions: FIG. 1; immunoblot analysis of nuclear extracts
Description: as §2, §3
Mouse Tissue HIF Western Blot Analysis
Tissues from mice stored at −80° C. are powdered with mortar and pestle chilled with liquid nitrogen. […]

Recombinant human EGLN-1-179/426, sequence (Q9GZT9 179-426): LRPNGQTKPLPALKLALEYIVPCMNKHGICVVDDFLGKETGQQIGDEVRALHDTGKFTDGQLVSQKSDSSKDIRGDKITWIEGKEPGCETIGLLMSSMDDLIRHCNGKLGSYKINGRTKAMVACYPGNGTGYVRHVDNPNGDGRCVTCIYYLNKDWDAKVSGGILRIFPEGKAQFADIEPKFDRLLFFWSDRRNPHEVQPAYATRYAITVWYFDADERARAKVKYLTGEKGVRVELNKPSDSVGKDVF
Full-length recombinant human EGLN-3 (His-MBP-TVMV-EGLN-3 fusion), sequence (Q9H6Z9 whole entry, the tested form may be a part): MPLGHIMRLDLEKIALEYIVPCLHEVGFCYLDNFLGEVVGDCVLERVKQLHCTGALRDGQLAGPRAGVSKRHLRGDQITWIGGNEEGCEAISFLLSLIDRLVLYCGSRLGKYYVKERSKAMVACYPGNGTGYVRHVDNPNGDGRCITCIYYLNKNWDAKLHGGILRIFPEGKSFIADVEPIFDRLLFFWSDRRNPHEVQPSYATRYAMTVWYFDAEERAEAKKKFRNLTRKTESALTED

For `O=C(O)CNC(=O)c1ncc(-c2cccc(-c3nn[nH]n3)c2)cc1O` [({3-Hydroxy-5-[3-(2H-tetrazol-5-yl)phenyl]-pyridine-2-carbonyl}-amino)-acetic acid], the IC50 [1] was 0.4 µM.
`COC(=O)CNC(=O)c1ncc(-c2cccc(C(=O)N3CCCC3)c2)cc1O` [({3-Hydroxy-5-[3-(pyrrolidine-1-carbonyl)-phenyl]-pyridine-2-carbonyl}-amino)-acetic acid methyl ester] was tested, and the IC50 [1] was 2.5 µM.
For `O=C(O)CNC(=O)c1ncc(-c2cccc(C(=O)N3CCCC3)c2)cc1O` [({3-Hydroxy-5-[3-(pyrrolidine-1-carbonyl)phenyl]-pyridine-2-carbonyl}amino)-acetic acid], the IC50 [1] was 0.3 µM.
`Cc1ccc(-c2ccc(C(=O)NCC(=O)O)c(O)c2)cc1` [[(3-Hydroxy-4′-methyl-biphenyl-4-carbonyl)-amino]-acetic acid] was tested, and the IC50 [1] was 20 µM and the EPO response [2] was “yes”.
In the case of `COC(=O)CNC(=O)c1ncc(-c2ccc(C)cc2)cc1O` [[(3-Hydroxy-5-(4-methylphenyl)-pyridine-2-carbonyl)-amino]-acetic acid methyl ester], the IC50 [3] is reported as 52.3 µM and the IC50 [1] is reported as 4.1 µM.
With `Cc1ccc(-c2cnc(C(=O)NCC(=O)O)c(O)c2)cc1` [[(3-Hydroxy-5-(4-methylphenyl)pyridine-2-carbonyl)amino]-acetic acid] the IC50 [3] was 0.18 µM and the EPO response [2] was “yes”.
In the case of `COC(=O)CNC(=O)c1ncc(-c2ccccc2Cl)cc1O` [{[5-(2-Chloro-phenyl)-3-hydroxy-pyridine-2-carbonyl]-amino}-acetic acid methyl ester], the IC50 [3] is reported as 37.5 µM and the EPO response [2] is reported as “yes”.
`O=C(O)CNC(=O)c1ncc(-c2ccccc2Cl)cc1O` [{[5-(2-Chlorophenyl)-3-hydroxypyridine-2-carbonyl]amino}-acetic acid] was tested, and the IC50 [3] was 0.39 µM and the EPO response [2] was “yes”.
With `Cc1ccc(Cl)cc1-c1cnc(C(=O)NCC(=O)O)c(O)c1` [{[5-(2-Methyl-5-chlorophenyl)-3-hydroxypyridine-2-carbonyl]amino}-acetic acid] the IC50 [1] was 2.5 µM.
In the case of `COC(=O)CNC(=O)c1ncc(-c2cccc(C(N)=O)c2)cc1O` [{[5-(3-Carbamoyl-phenyl)-3-hydroxy-pyridine-2-carbonyl]-amino}-acetic acid methyl ester], the IC50 [1] is reported as 11.2 µM.
`O=C(O)CNC(=O)c1ncc(-c2cccc(Cl)c2)cc1O` [{[5-(3-Chlorophenyl)-3-hydroxypyridine-2-carbonyl]amino}-acetic acid] was tested, and the “stabilization of HIF-1α in mouse liver” value [4] was “stabilization”, the “erythropoietin level versus vehicle in mouse serum” value ([2]; FIG. 2, after oral dosing) was “elevated” and the EPO response [2] was “yes”.
Compound `N#Cc1cccc(-c2cnc(C(=O)NCC(=O)O)c(O)c2)c1` [{[5-(3-Cyanophenyl)-3-hydroxypyridine-2-carbonyl]amino}-acetic acid] has an IC50 [1] of 0.19 µM.
In the case of `COC(=O)CNC(=O)c1ncc(-c2cccc(Cl)c2)cc1O` [{[5-(3-chloro-phenyl)-3-hydroxy-pyridine-2-carbonyl]-amino}-acetic acid methyl ester], the IC50 [3] is reported as 21.4 µM, the IC50 [1] is reported as 2.8 µM and the EPO response [2] is reported as “yes”.
`COC(=O)CNC(=O)c1ncc(-c2ccc(Cl)cc2)cc1O` [{[5-(4-Chloro-phenyl)-3-hydroxy-pyridine-2-carbonyl]-amino}-acetic acid methyl ester] was tested, and the IC50 [1] was 3.7 µM.
For `N#Cc1ccc(-c2cnc(C(=O)NCC(=O)O)c(O)c2)cc1` [{[5-(4-Cyanophenyl)-3-hydroxypyridine-2-carbonyl]amino}-acetic acid], the IC50 [3] was 0.56 µM and the EPO response [2] was “yes”.
`CC(C)Oc1ccc(-c2cnc(C(=O)NCC(=O)O)c(O)c2)cc1` [{[5-(4-Isopropoxyphenyl)-3-hydroxypyridine-2-carbonyl]amino}-acetic acid] gave an IC50 [1] of 1.6 µM.
For `CC(C)c1ccc(-c2cnc(C(=O)NCC(=O)O)c(O)c2)cc1` [{[5-(4-Isopropylphenyl)-3-hydroxypyridine-2-carbonyl]amino}-acetic acid], the IC50 [1] was 0.44 µM.
In the case of “{[5-(4-Chlorophenyl)-3-hydroxypyridine-2-carbonyl]amino}-acetic acid”, the IC50 [3] is reported as 0.083 µM and the EPO response [2] is reported as “yes”.
